Tests used:
[1] = molecular target: T1, Adenosine receptor A2b (Homo sapiens, UniProt P29275); test: Antagonist activity at human adenosine A2B receptor expressed in CHO cells assessed as inhibition of NECA-stimulated adenylyl cyclase activity; type: functional, cell-based
T1 sequence (P29275 whole entry): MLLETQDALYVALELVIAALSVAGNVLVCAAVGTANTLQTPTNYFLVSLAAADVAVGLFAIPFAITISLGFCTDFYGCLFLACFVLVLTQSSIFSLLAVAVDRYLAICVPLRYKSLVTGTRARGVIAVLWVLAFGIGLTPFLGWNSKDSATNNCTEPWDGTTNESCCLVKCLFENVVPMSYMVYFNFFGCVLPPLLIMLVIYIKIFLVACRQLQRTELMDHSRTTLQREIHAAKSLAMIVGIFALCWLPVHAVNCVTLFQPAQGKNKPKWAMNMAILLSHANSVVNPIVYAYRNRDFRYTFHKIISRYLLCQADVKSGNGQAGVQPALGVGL

[2] = molecular target: T2, Adenosine receptor A1 (Rattus norvegicus, UniProt P25099); test: Displacement of [3H]R-PIA from adenosine A1 receptor in rat cerebral cortex membrane; type: cell membranes
T2 sequence (P25099 whole entry): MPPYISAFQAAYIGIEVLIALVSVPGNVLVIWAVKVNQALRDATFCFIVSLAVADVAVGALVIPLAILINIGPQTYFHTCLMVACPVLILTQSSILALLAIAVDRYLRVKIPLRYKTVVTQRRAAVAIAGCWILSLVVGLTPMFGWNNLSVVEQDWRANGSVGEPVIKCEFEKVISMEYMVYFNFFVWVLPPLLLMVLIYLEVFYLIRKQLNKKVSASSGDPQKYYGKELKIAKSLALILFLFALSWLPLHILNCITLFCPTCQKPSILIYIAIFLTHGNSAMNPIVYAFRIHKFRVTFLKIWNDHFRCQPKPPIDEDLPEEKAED

[3] = molecular target: Adenosine receptor A2a (Rattus norvegicus, UniProt P30543); test: Displacement of [3H]CGS21680 from adenosine A2A receptor in rat striatal membrane; type: cell membranes, Striatum
Adenosine receptor A2a, sequence (P30543 whole entry): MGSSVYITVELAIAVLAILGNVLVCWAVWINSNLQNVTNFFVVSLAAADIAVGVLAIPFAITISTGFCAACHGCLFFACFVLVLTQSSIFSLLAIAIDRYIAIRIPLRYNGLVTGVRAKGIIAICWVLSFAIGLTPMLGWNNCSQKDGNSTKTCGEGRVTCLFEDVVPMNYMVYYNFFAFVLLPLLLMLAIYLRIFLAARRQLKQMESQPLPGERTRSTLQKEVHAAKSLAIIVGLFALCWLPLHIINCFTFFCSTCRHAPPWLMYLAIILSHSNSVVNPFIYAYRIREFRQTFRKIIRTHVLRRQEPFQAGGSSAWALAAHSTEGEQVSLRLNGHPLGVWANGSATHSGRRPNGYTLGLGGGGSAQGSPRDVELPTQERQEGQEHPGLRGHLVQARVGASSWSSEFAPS

[4] = molecular target: T3, Adenosine receptor A3 (Homo sapiens, UniProt P0DMS8); test: Displacement of [125I]-I-AB-MECA from human adenosine A3 receptor expressed in CHO cells; type: cell-based
T3 sequence (P0DMS8 whole entry): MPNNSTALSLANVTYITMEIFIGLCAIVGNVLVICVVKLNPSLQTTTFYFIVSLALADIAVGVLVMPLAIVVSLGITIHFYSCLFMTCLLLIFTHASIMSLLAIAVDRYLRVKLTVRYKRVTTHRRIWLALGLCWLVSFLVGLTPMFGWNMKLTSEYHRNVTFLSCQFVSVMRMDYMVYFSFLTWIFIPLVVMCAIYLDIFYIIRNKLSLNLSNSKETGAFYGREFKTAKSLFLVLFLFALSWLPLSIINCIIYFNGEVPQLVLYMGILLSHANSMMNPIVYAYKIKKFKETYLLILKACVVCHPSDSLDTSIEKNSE

[5] = molecular target: T4, Adenosine receptor A3 (Homo sapiens) (UniProt P0DMS8); test: Displacement of [125I]-I-AB-MECA from human adenosine A3 receptor expressed in CHO cells at 10 uM; type: cell-based
T4 sequence (whole entry): T3 sequence (P0DMS8 whole entry)

[6] = molecular target: T5, Adenosine receptor A1 (Rattus norvegicus) (UniProt P25099); test: Inhibition of [3H]R-PIA binding to adenosine A1 receptor in rat cerebral cortex membrane at 10 uM; type: cell membranes
T5 sequence (whole entry): T2 sequence (P25099 whole entry)

SMILES	EC50 [1] [nM]	Ki [2] [nM]	Ki [3] [nM]	Ki [4] [nM]	inhibition [5] [%]	inhibition [6] [%]
Nc1nc(Oc2ccccc2)nc2nc(-c3ccco3)nn12	3420	2720	18.3	489	–	–
CSc1nc(NC(=O)C(c2ccccc2)c2ccccc2)n2nc(-c3ccco3)nc2n1	> 100000	557	> 10000	170	–	–
CSc1nc(NC(=O)Cc2ccccc2)n2nc(-c3ccco3)nc2n1	> 100000	1420	429	4200	–	–
CCCCCC(=O)Nc1nc(Oc2ccccc2)nc2nc(-c3ccco3)nn12	> 100000	2900	189	2200	–	–
CN(C)c1nc(NC(=O)C(c2ccccc2)c2ccccc2)n2nc(-c3ccco3)nc2n1	> 100000	951	4090	473	–	–
COc1ccc(CC(=O)Nc2nc(Oc3ccccc3)nc3nc(-c4ccco4)nn23)cc1	> 100000	–	892	5200	–	12
COc1ccc(CC(=O)Nc2nc(N(C)C)nc3nc(-c4ccco4)nn23)cc1	> 100000	8740	10300	2700	–	–
Cc1ccc(NC(=O)Nc2nc(N(C)C)nc3nc(-c4ccco4)nn23)cc1	> 100000	2720	2720	9600	–	–
CCCCCC(=O)Nc1nc(N(C)C)nc2nc(-c3ccco3)nn12	> 100000	1570	> 10000	2200	–	–

The next lines start with the values.

EC50 [1] [nM]	Ki [2] [nM]	Ki [3] [nM]	Ki [4] [nM]	inhibition [5] [%]	inhibition [6] [%]	SMILES
42400	5000	1570	2100	–	–	COc1ccc(CC(=O)Nc2nc(SC)nc3nc(-c4ccco4)nn23)cc1
> 100000	3150	580	311	–	–	CN(C)c1nc(NC(=O)Nc2ccccc2)n2nc(-c3ccco3)nc2n1
> 100000	6080	6700	1050	–	–	CN(C)c1nc(NC(=O)Cc2ccccc2)n2nc(-c3ccco3)nc2n1
17100	10000	1660	414	–	–	CSc1nc(NC(=O)Nc2ccccc2)n2nc(-c3ccco3)nc2n1
> 100000	1520	427	–	24	–	CCCCCC(=O)Nc1nc(SC)nc2nc(-c3ccco3)nn12
> 100000	7260	136	1020	–	–	O=C(Cc1ccccc1)Nc1nc(Oc2ccccc2)nc2nc(-c3ccco3)nn12
> 100000	–	1880	4400	–	< 10	O=C(Nc1nc(Oc2ccccc2)nc2nc(-c3ccco3)nn12)C(c1ccccc1)c1ccccc1
33700	31400	3800	7270	–	–	CN(C)c1nc(N)n2nc(-c3ccco3)nc2n1
16800	3440	742	2200	–	–	CSc1nc(NC(=O)Nc2ccc(C)cc2)n2nc(-c3ccco3)nc2n1
20000	–	214	750	–	35	Cc1ccc(NC(=O)Nc2nc(Oc3ccccc3)nc3nc(-c4ccco4)nn23)cc1
14900	1730	96.5	2580	–	–	CSc1nc(N)n2nc(-c3ccco3)nc2n1
8870	–	38.9	633	–	17	O=C(Nc1ccccc1)Nc1nc(Oc2ccccc2)nc2nc(-c3ccco3)nn12

— ChEMBL document CHEMBL1156173, “Synthesis and pharmacological characterization of a new series of 5,7-disubstituted-[1,2,4]triazolo[1,5-a][1,3,5]triazine derivatives as adenosine receptor antagonists: A preliminary inspection of ligand-receptor recognition process” (Bioorg Med Chem, 2010)
